According to patent publication US9700044B2, “Symmetrical marinopyrrole derivatives as potential antibiotic agents” (priority 2013, dated 2017):
Values after ≈ are worked out from the molar mass of the structure shown. Values joined by “and” are separate entries in the source; they are usually repeats but may differ in a detail not shown here. Identical values can stand only once. Like-named read-outs stand apart in the source and are kept apart here.

What was measured:
[1] = system: Methicillin-susceptible Staphylococcus aureus (MSSA); test: MIC by agar dilution, MSSA clinical isolates; format: cell-based; conditions: for MIC: MSSA
Text: (§1) A panel of multiple resistance Gram-positive and Gram-negative pathogens listed in Tables 1 and 2 was used to evaluate the antimicrobial activity of marinopyrrole derivatives (Chart 1) with vancomycin as a positive control. Except for those marked with WHO, all pathogens were isolated between 2008 and 2010 in hospitals located in Beijing; Guangzhou; Sichuan, Shandong and Jiangsu Province. Determination of the minimum inhibitory concentration (MIC) was done by the guidelines of the Clinical and Laboratory Standards Institute (Clinical and Laboratory Standards Institute, Performance standards for antimicrobial susceptibility testing, seventeenth informational supplement. 2007, 27, M100-S17). The susceptibility tests of a bacterial strain to a marinopyrrole derivative were performed by an agar dilution method. Briefly, each sterile petri dish contained a final volume of 15 mL comprising 1 mL of a marinopyrrole derivative and 14 mL of Mueller-Hinton broth. The concentrations of a marinopyrrole derivative are 128, 64, 32, 16, 8, 4, 2, 1, 0.5, 0.25, 0.125, 0.06, 0.03, 0.015 and 0.008 μg/mL. The petri dish containing the broth with different concentration of antibiotics was first inoculated with 10^5 CFU/mL (Denley A400, United Kingdom) and the culture was then incubated with shaking at 35-37° C. for 18-20 h. The potency of the compound was determined and expressed as minimum inhibitory concentration (MIC) in μg/mL. The MIC was determined as the lowest concentration of antibiotic that inhibited visible bacterial growth.

[2] = system: Moderately vancomycin-resistant Enterococci faecium with the VanA gene (WHO-3); test: MIC by agar dilution, VRE (WHO-3); format: cell-based
Text: as §1

[3] = system: Methicillin-resistant Staphylococcus epidermidis (MRSE); test: MIC by agar dilution, MRSE clinical isolates; format: cell-based; conditions: for MIC: MRSE
Text: as §1

[4] = system: Oxacillin-resistant Staphylococcus aureus (WHO-25); test: MIC by agar dilution, ORSA (WHO-25); format: cell-based
Text: as §1

[5] = system: Methicillin-resistant Staphylococcus aureus (MRSA); test: MIC by agar dilution, MRSA clinical isolates; format: cell-based; conditions: for MIC: MRSA
Text: as §1

[6] = system: Methicillin-resistant Staphylococcus aureus with the mec A gene and PBP2a (WHO-31); test: MIC by agar dilution, MRSA (WHO-31); format: cell-based
Text: as §1

[7] = system: K. penumonia; test: MIC by agar dilution, K. penumonia; format: cell-based, K. pneumonia; conditions: Table 1; K. penumonia, 4 isolates; value over three Gram-negative pathogens
Text: as §1

[8] = system: Highly vancomycin-resistant Enterococci faecalis (VRE); test: MIC by agar dilution, highly resistant VRE; format: cell-based; conditions: Table 1; VRE (highly vancomycin-resistant E. faecalis), 2 isolates
Text: as §1

[9] = system: E. coli; test: MIC by agar dilution, E. coli; format: cell-based; conditions: Table 1; E. coli, 4 isolates; value over three Gram-negative pathogens
Text: as §1

[10] = system: P. aeruginosa; test: MIC by agar dilution, P. aeruginosa; format: cell-based; conditions: Table 1; P. aeruginosa, 4 isolates; value over three Gram-negative pathogens
Text: as §1

[11] = Staphylococcus aureus, Table 2, data from 8 isolates, read-out: MIC
[12] = Enterococcus, Table 2, WHO-3, read-out: MIC
[13] = Staphylococcus epidermidis, Table 2, data from 4 isolates, read-out: MIC
[14] = Staphylococcus aureus, Table 2, WHO-25, read-out: MIC
[15] = Staphylococcus aureus, Table 2, WHO-31, read-out: MIC
[16] = Staphylococcus aureus, Table 3, data from 8 isolates, read-out: MIC
[17] = Staphylococcus epidermidis, Table 3, data from 4 isolates, read-out: MIC

Compound | MIC ([1]; Table 2, data from 8 isolates) | MIC ([2]; Table 2, WHO-3) | MIC ([3]; Table 2, data from 4 isolates) | MIC ([4]; Table 2, WHO-25) | MIC ([5]; Table 2, data from 8 isolates) | MIC ([6]; Table 2, WHO-31) | MIC [1, 11] | MIC [2, 12] | MIC [3, 13] | MIC [4, 14] | MIC [5, 11] | MIC [6, 15] | other results
COc1cc(O)c(C(=O)c2[nH]c(Cl)c(Cl)c2-n2c(C(=O)c3cc(Cl)c(OC)cc3O)cc(Cl)c2Cl)cc1Cl [Compound 1m] |  |  |  |  |  |  |  |  |  |  |  |  | MIC [7]: >128 µg/mL; MIC ([1]; Table 1, 10 isolates): 2 to 8 µg/mL; MIC ([2]; Table 1, VRE (WHO-3), 1 isolate): 0.5 µg/mL (≈ 0.782 µM); MIC [8]: >128 µg/mL; MIC ([3]; Table 1, 3 isolates): 0.25 to 4 µg/mL; MIC [9]: >128 µg/mL; MIC ([4]; Table 1, ORSA (WHO-25), 1 isolate): 4 µg/mL (≈ 6.26 µM); MIC ([5]; Table 1, 10 isolates): 2 to 8 µg/mL; MIC [10]: >128 µg/mL; MIC ([6]; Table 1, MRSA (WHO-31), 1 isolate): 4 µg/mL (≈ 6.26 µM)
O=C(c1cc(Cl)c(O)cc1O)c1[nH]c(Cl)c(Cl)c1-n1c(C(=O)c2cc(Cl)c(O)cc2O)cc(Cl)c1Cl [Compound 19, (4,4′,5,5′-Tetrachloro-1′H-1,3′-bipyrrole-2,2′-diyl)bis((5-chloro-2,4-dihydroxyphenyl)methanone)] |  |  |  |  |  |  | 32 µg/mL (≈ 52.4 µM) | 4 µg/mL (≈ 6.55 µM) | 4 to 8 µg/mL (≈ 6.55 to 13.1 µM) | 8 µg/mL (≈ 13.1 µM) | 32 µg/mL (≈ 52.4 µM) | 8 µg/mL (≈ 13.1 µM) | fold decreased potency compared with compound 1m ([3]; against MRSE): 2-16 fold; fold decreased potency compared with compound 1m ([5]; against MRSA): 4-16 fold
O=C(c1ccccc1O)c1[nH]c(Cl)c(Cl)c1-n1c(C(=O)c2ccccc2O)cc(Cl)c1Cl (racemic) [Compound 1, marinopyrrole A, reference compound] |  |  |  |  |  |  |  |  |  |  |  |  | higher potency than vancomycin (fold) ([2]; against moderately resistant VRE (Table 1)): 128-256 fold
Cc1cc(O)c(C(=O)c2[nH]c(Cl)c(Cl)c2-n2c(C(=O)c3cc(Cl)c(C)cc3O)cc(Cl)c2Cl)cc1Cl [CCW14] |  |  |  |  |  |  |  |  |  |  |  |  | MIC [1, 16]: 1 µg/mL (≈ 1.65 µM); MIC ([2]; Enterococcus, Table 3, WHO-3, read-out: MIC): 4 µg/mL (≈ 6.59 µM); MIC [3, 17]: 1 µg/mL (≈ 1.65 µM); MIC ([4]; Staphylococcus aureus, Table 3, WHO-25, read-out: MIC): 4 µg/mL (≈ 6.59 µM); MIC [5, 16]: 1 µg/mL (≈ 1.65 µM); MIC ([6]; Staphylococcus aureus, Table 3, WHO-31, read-out: MIC): 1 µg/mL (≈ 1.65 µM)
COc1ccc(CS(=O)(=O)c2ccc(C(=O)c3[nH]c(Cl)c(Cl)c3-n3c(C(=O)c4ccc(S(=O)(=O)Cc5ccc(OC)cc5)cc4O)cc(Cl)c3Cl)c(O)c2)cc1 [Compound 30] | >64 µg/mL | >64 µg/mL | 2 to 16 µg/mL | >64 µg/mL | >64 µg/mL | >64 µg/mL |  |  |  |  |  |  | 
O=C(c1ccc(SCc2ccccc2)cc1O)c1[nH]c(Cl)c(Cl)c1-n1c(C(=O)c2ccc(SCc3ccccc3)cc2O)cc(Cl)c1Cl [Compound 26, (4,4′,5,5′-Tetrachloro-1′H-1,3′-bipyrrole-2,2′-diyl)bis(((2-hydroxy-4-benzylthio)phenyl)methanone)] | >64 µg/mL | 16 µg/mL (≈ 21.2 µM) | 8 to 32 µg/mL | >64 µg/mL | >64 µg/mL | >64 µg/mL |  |  |  |  |  |  | 
O=C(c1ccc(C(F)(F)F)cc1O)c1[nH]c(Cl)c(Cl)c1-n1c(C(=O)c2ccc(C(F)(F)F)cc2O)cc(Cl)c1Cl [Compound 41, (4,4′,5,5′-tetrachloro-1′H-1,3′-bipyrrole-2,2′-diyl)bis((2-hydroxy-4-(trifluoromethyl)phenyl)methanone)] |  |  |  |  |  |  | 0.125 µg/mL (≈ 0.193 µM) | 0.5 µg/mL (≈ 0.774 µM) | < 0.008 µg/mL | 1 µg/mL (≈ 1.55 µM) | 0.125 to 0.25 µg/mL (≈ 0.193 to 0.387 µM) | 1 µg/mL (≈ 1.55 µM) | MIC ([1]; Table 3, data from 8 isolates): 0.125 µg/mL (≈ 0.193 µM); fold more potent than marinopyrrole A ([1]; against MSSA): 4 fold; fold more potent than vancomycin ([1]; against MSSA): 8 fold; MIC ([2]; Table 3, WHO-3): 0.5 µg/mL (≈ 0.774 µM); MIC [3, 17]: < 0.008 µg/mL; MIC ([3]; Staphylococcus epidermidis, against MRSE, read-out: MIC): 0.008 µg/mL (≈ 0.0124 µM); fold more potent than marinopyrrole A ([3]; against MRSE): > 31 fold and 31 fold; fold more potent than vancomycin ([3]; against MRSE): > 62 fold and 63-125 fold; MIC ([4]; Table 3, WHO-25): 1 µg/mL (≈ 1.55 µM); MIC ([5]; Table 3, data from 8 isolates): 0.125 to 0.25 µg/mL; fold more potent than marinopyrrole A ([5]; against MRSA): 2-4 fold and 4 fold; fold more potent than vancomycin ([5]; against MRSA): 2-4 fold and 4-8 fold; MIC ([6]; Table 3, WHO-31): 1 µg/mL (≈ 1.55 µM)
COc1ccc(CSc2ccc(C(=O)c3[nH]c(Cl)c(Cl)c3-n3c(C(=O)c4ccc(SCc5ccc(OC)cc5)cc4O)cc(Cl)c3Cl)c(O)c2)cc1 [Compound 27] | >64 µg/mL | 16 µg/mL (≈ 19.6 µM) | 8 to 64 µg/mL | >64 µg/mL | >64 µg/mL | >64 µg/mL |  |  |  |  |  |  | 
CCOC(=O)CSc1ccc(C(=O)c2[nH]c(Cl)c(Cl)c2-n2c(C(=O)c3ccc(SCC(=O)OCC)cc3O)cc(Cl)c2Cl)c(O)c1 [Compound 25] | 64 µg/mL (≈ 85.7 µM) | 2 µg/mL (≈ 2.68 µM) | 8 µg/mL (≈ 10.7 µM) | 64 µg/mL (≈ 85.7 µM) | 32 to 64 µg/mL | 16 µg/mL (≈ 21.4 µM) |  |  |  |  |  |  | 

Continued, in another order:

MIC ([1]; Table 2, data from 8 isolates) | MIC ([2]; Table 2, WHO-3) | MIC ([3]; Table 2, data from 4 isolates) | MIC ([4]; Table 2, WHO-25) | MIC ([5]; Table 2, data from 8 isolates) | MIC ([6]; Table 2, WHO-31) | MIC [1, 11] | MIC [2, 12] | MIC [3, 13] | MIC [4, 14] | MIC [5, 11] | MIC [6, 15] | Compound | other results
>64 µg/mL | 4 µg/mL (≈ 4.94 µM) | 8 µg/mL (≈ 9.87 µM) | 32 µg/mL (≈ 39.5 µM) | >64 µg/mL | >64 µg/mL |  |  |  |  |  |  | CCOC(=O)CS(=O)(=O)c1ccc(C(=O)c2[nH]c(Cl)c(Cl)c2-n2c(C(=O)c3ccc(S(=O)(=O)CC(=O)OCC)cc3O)cc(Cl)c2Cl)c(O)c1 [Compound 28] | 
 |  |  |  |  |  | > 64 µg/mL | 64 µg/mL (≈ 84.8 µM) | 8 to 64 µg/mL (≈ 10.6 to 84.8 µM) | > 64 µg/mL | > 64 µg/mL | > 64 µg/mL | O=C(O)CS(=O)(=O)c1ccc(C(=O)c2[nH]c(Cl)c(Cl)c2-n2c(C(=O)c3ccc(S(=O)(=O)CC(=O)O)cc3O)cc(Cl)c2Cl)c(O)c1 [Compound 32] | 
 |  |  |  |  |  | > 64 µg/mL | 32 µg/mL (≈ 46.4 µM) | 32 to 64 µg/mL (≈ 46.4 to 92.7 µM) | > 64 µg/mL | > 64 µg/mL | > 64 µg/mL | O=C(O)CSc1ccc(C(=O)c2[nH]c(Cl)c(Cl)c2-n2c(C(=O)c3ccc(SCC(=O)O)cc3O)cc(Cl)c2Cl)c(O)c1 [Compound 31] | 
 |  |  |  |  |  | 2 µg/mL (≈ 3.69 µM) | 4 µg/mL (≈ 7.38 µM) | 2 to 8 µg/mL (≈ 3.69 to 14.8 µM) | 4 µg/mL (≈ 7.38 µM) | 2 µg/mL (≈ 3.69 µM) | 2 µg/mL (≈ 3.69 µM) | O=C(c1ccc(O)cc1O)c1[nH]c(Cl)c(Cl)c1-n1c(C(=O)c2ccc(O)cc2O)cc(Cl)c1Cl [Compound 24, (4,4′,5,5′-Tetrachloro-1′H-1,3′-bipyrrole-2,2′-diyl)bis((2,4-dihydroxyphenyl)methanone)] | 
>64 µg/mL | 8 µg/mL (≈ 9.77 µM) | 32 µg/mL (≈ 39.1 µM) | 32 µg/mL (≈ 39.1 µM) | >64 µg/mL | 64 µg/mL (≈ 78.2 µM) |  |  |  |  |  |  | O=C(c1ccc(S(=O)(=O)Cc2ccccc2)cc1O)c1[nH]c(Cl)c(Cl)c1-n1c(C(=O)c2ccc(S(=O)(=O)Cc3ccccc3)cc2O)cc(Cl)c1Cl [Compound 29, (4,4′,5,5′-Tetrachloro-1′H-1,3′-bipyrrole-2,2′-diyl)bis(((2-hydroxy-4-benzylsulfonyl)phenyl)methanone)] | 
